In ChEMBL document CHEMBL1155995, “Pyrrole[2,3-d]azepino compounds as agonists of the farnesoid X receptor (FXR)” (Bioorg Med Chem Lett, 2009):
pEC50: −log10 of the molar value. Values after ≈ are worked out from the molar mass of the structure shown.

What was measured:
[1] = Aqueous solubility at pH 7.4
[2] = target: T1, Bile acid receptor (Homo sapiens, UniProt Q96RI1)
T1 sequence (Q96RI1 whole entry): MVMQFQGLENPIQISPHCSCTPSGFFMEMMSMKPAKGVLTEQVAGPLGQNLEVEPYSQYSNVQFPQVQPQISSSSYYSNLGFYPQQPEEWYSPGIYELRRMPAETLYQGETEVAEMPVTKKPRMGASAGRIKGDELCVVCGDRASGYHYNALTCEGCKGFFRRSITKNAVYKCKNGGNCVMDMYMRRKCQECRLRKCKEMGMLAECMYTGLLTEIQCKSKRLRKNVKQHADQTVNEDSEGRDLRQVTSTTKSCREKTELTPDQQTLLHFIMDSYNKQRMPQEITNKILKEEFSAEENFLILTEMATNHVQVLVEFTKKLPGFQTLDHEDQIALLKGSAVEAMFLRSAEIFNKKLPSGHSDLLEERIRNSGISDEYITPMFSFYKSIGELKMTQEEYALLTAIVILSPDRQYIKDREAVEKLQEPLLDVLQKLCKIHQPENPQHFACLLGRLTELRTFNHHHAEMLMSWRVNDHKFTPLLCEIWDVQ
Description: Agonist activity at gal4-tagged human FXR-ligand binding domain expressed in human HEK293 cells by luciferase reporter gene assay

Row | SMILES | solubility ([1]; aqueous) | solubility ([1]; buffer) | pEC50 [2]
1 | CC(C)OC(=O)C1=CN(C(=O)c2cccs2)CC(C)(C)c2cc(C#N)[nH]c21 | – | Insoluble(BLD) | 7.80
2 | CC(C)OC(=O)C1=CN(C(=O)c2cccc(C(F)(F)F)c2)CC(C)(C)c2cc(C#N)[nH]c21 | – | Insoluble(BLD) | 8.07
3 | CC(C)OC(=O)C1=CN(C(=O)c2ccc(F)cc2)CC(C)(C)c2cc(C#N)[nH]c21 | – | Insoluble(BLD) | –
4 | CC(C)OC(=O)C1=CN(C(=O)c2ccc(F)c(F)c2)CC(C)(C)c2c1[nH]c1ccccc21 [TUROFEXORATE ISOPROPYL] | – | Insoluble(BLD) | –
5 | CC(C)OC(=O)C1=CN(C(=O)c2ccc(C#N)cc2)CC(C)(C)c2cc(C#N)[nH]c21 | – | Insoluble(BLD) | –
6 | CC(C)OC(=O)C1=CN(C(=O)C2CCCCC2)CC(C)(C)c2cc(C#N)[nH]c21 | – | Insoluble(BLD) | –
7 | CC(C)OC(=O)C1=CN(C(=O)c2ccc(F)c(F)c2)CC(C)(C)c2cc(C#N)[nH]c21 | – | Insoluble(BLD) | 8.20

Now from value to compound:

Row | solubility ([1]; aqueous) | solubility ([1]; buffer) | pEC50 [2] | SMILES
8 | 17 µg/mL (≈ 41.1 µM) | – | – | CC(C)OC(=O)C1CN(C(=O)c2cccc(Cl)c2)CC(C)(C)c2cc(C#N)[nH]c21 (stereo not given)
9 | 5 µg/mL (≈ 12.1 µM) | – | – | CC(C)OC(=O)C1CN(C(=O)c2ccc(Cl)cc2)CC(C)(C)c2cc(C#N)[nH]c21 (stereo not given)
10 | 21 µg/mL (≈ 51.9 µM) | – | – | CC(C)OC(=O)C1CN(C(=O)c2ccc(C#N)cc2)CC(C)(C)c2cc(C#N)[nH]c21 (stereo not given)
11 | > 100 µg/mL | – | – | CC(C)OC(=O)C1CN(C(=O)C2CCCCC2)CC(C)(C)c2cc(C#N)[nH]c21 (stereo not given)
12 | – | Insoluble(BLD) | – | CC(C)OC(=O)C1=CN(C(=O)c2cccc(F)c2)CC(C)(C)c2cc(C#N)[nH]c21
13 | > 100 µg/mL | – | – | CC(C)OC(=O)C1CN(C(=O)c2ccc(F)cc2)CC(C)(C)c2cc(C#N)[nH]c21 (stereo not given)
14 | – | Insoluble(BLD) | – | CC(C)OC(=O)C1=CN(C(=O)c2cccc(Cl)c2)CC(C)(C)c2cc(C#N)[nH]c21
15 | 31 µg/mL (≈ 74.6 µM) | – | – | CC(C)OC(=O)C1CN(C(=O)c2ccc(F)c(F)c2)CC(C)(C)c2cc(C#N)[nH]c21 (stereo not given)
16 | > 100 µg/mL | – | – | CC(C)OC(=O)C1CN(C(=O)C2CCOCC2)CC(C)(C)c2cc(C#N)[nH]c21 (stereo not given)
17 | > 100 µg/mL | – | – | CC(C)OC(=O)C1CN(C(=O)c2cccc(F)c2)CC(C)(C)c2cc(C#N)[nH]c21 (stereo not given)
